Data set [1] addresses Prostaglandin G/H synthase 1 (Homo sapiens, UniProt P23219). In words: biochemical. It counts as tissue-based, Platelet.
Data set [2] has as its target Aldo-keto reductase family 1 member B1 (Rattus norvegicus, UniProt P07943). In words: biochemical. It counts as tissue-based, Lens of camera-type eye.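 Note: inhibition of aldose reductase enzyme activity, measured with DL-glyceraldehyde as the substrate; in other assays of this panel Not Active means under 50% inhibition at 10 µM.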
A further data set concerns the target T1, D(4) dopamine receptor (Homo sapiens, UniProt P21917).
T1 sequence (P21917 whole entry): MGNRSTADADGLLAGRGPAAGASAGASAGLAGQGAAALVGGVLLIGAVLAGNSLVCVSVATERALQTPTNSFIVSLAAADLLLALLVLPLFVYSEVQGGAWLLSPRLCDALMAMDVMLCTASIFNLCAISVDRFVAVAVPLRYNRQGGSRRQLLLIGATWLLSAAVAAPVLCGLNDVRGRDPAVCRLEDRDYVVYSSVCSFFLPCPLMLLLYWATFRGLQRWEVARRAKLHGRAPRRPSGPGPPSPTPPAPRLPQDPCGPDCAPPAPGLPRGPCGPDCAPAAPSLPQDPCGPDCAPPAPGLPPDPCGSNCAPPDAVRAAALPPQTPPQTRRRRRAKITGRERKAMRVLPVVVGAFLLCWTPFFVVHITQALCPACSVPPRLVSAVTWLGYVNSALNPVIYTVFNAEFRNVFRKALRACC
In words: DRUGMATRIX: Dopamine D4.2 radioligand binding (ligand: [3H] Spiperone). Type of data set: cell membranes, CHO-K1, Membrane. The conditions noted are these: cho-k1; Not Active = under 50% inhibition at 10 µM.

Data set [3] in a line: DRUGMATRIX: Phosphodiesterase PDE3 enzyme inhibition (substrate: [3H]cAMP + cAMP). As to conditions: platelet; Not Active = under 50% inhibition at 10 µM. Type of data set: tissue-based, Homo sapiens.
The target of another data set is Cytochrome P450 2D6 (Homo sapiens, UniProt P10635). The conditions noted are these: bti-tn-5b1-4. Note: in other assays of this panel Not Active means under 50% inhibition at 10 µM.
Data set [4] can be described thus: DRUGMATRIX: Calcium Channel Type L, Benzothiazepine radioligand binding (ligand: [3H] Diltiazem). The conditions noted are these: Not Active = under 50% inhibition at 10 µM. Type of data set: cell membranes, Rattus norvegicus, Wistar, Brain, Membrane.
The nature of data set [5]: DRUGMATRIX: Glutamate, NMDA, Agonism radioligand binding (ligand: [3H] CGP-39653). As to conditions: Not Active = under 50% inhibition at 10 µM. Type of data set: cell membranes, Rattus norvegicus, Wistar, Cerebral cortex, Membrane.

Cytochrome P450 2D6, sequence (P10635 whole entry): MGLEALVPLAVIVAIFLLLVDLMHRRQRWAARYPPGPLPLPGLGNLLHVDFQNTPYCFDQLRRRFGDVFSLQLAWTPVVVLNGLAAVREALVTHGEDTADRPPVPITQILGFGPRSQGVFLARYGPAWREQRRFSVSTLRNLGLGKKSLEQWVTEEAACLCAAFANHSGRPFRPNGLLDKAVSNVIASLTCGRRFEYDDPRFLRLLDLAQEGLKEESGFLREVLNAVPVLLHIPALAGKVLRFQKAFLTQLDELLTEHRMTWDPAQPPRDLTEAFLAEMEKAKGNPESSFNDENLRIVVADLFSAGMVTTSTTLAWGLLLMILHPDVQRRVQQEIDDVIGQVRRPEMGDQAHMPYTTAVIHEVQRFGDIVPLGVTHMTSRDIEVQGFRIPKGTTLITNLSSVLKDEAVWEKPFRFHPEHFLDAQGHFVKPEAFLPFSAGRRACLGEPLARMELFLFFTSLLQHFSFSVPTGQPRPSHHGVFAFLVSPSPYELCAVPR
Prostaglandin G/H synthase 1, sequence (P23219 whole entry): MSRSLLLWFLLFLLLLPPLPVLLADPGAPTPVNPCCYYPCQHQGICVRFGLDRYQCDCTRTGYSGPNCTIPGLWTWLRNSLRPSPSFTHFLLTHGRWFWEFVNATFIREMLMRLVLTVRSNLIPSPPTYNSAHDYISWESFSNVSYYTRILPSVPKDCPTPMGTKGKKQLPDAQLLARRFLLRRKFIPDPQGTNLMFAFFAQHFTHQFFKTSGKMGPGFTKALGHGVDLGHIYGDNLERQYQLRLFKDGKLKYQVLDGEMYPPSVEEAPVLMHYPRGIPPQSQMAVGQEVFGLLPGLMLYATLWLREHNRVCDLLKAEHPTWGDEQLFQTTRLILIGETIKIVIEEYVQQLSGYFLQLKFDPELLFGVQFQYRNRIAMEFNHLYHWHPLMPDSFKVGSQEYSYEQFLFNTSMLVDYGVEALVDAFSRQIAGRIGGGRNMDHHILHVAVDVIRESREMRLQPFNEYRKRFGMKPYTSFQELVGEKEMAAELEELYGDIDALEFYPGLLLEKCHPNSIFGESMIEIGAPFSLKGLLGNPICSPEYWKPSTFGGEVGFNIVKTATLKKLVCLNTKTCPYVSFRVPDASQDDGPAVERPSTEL

Take `NC(=O)CN1CCCC1=O`: the IC50 entry (in data set [1] (platelet); in data set [2]; on D(4) dopamine receptor; in data set [3]; at Cytochrome P450 2D6; in data set [4]) was “Not Active” throughout. Moreover, in data set [5], the IC50 entry is reported as “Not Active”. Also, the Ki result (in data set [3]; on Cytochrome P450 2D6; in data set [4]; in data set [5]) was “Not Active” throughout.
On to `C=C(Cl)Cl` [1,1-DICHLOROETHENE], for which the IC50 result (in data set [1] (platelet); in data set [2]; on D(4) dopamine receptor; in data set [3]; on Cytochrome P450 2D6; in data set [4]) was “Not Active” each time. The IC50 entry in data set [5] is recorded as “Not Active”. The Ki entry (in data set [3]; at Cytochrome P450 2D6; in data set [4]; in data set [5]) was “Not Active” each time.
As to `CC(=O)Nc1ccc2c(c1)Cc1ccccc1-2` [2-ACETYLAMINOFLUORENE], the IC50 result (in data set [1] (platelet); in data set [2]; on D(4) dopamine receptor; in data set [3]; at Cytochrome P450 2D6; in data set [4]) was “Not Active” in each case. Besides, the IC50 entry in data set [5] is given as “Not Active”. The Ki entry (in data set [3]; on Cytochrome P450 2D6; in data set [4]; in data set [5]) was “Not Active” in each case.
With `O=C(Nc1ccc(Cl)c(Cl)c1)c1cc(Cl)cc(Cl)c1O` [3,3',4',5-TETRACHLOROSALICYLANILIDE], the IC50 in data set [1] (read-out: IC50) was 0.666 µM; in data set [2] it was “Not Active”; at D(4) dopamine receptor it was “Not Active”; in data set [3] it was “Not Active”; against Cytochrome P450 2D6, “Not Active”; in data set [4], “Not Active”. The IC50 result in data set [5] is listed as “Not Active”. The Ki result (in data set [3]; on Cytochrome P450 2D6; in data set [4]; in data set [5]) was “Not Active” throughout.
As to `O=C(O)COC(=O)Cc1ccccc1Nc1c(Cl)cccc1Cl` [ACECLOFENAC], the IC50 entry in data set [1] (platelet) is “Not Active”; in data set [2] (read-out: IC50) it was 1.29 µM; on D(4) dopamine receptor it was “Not Active”; in data set [3], “Not Active”; against Cytochrome P450 2D6 it was “Not Active”; in data set [4] it was “Not Active”. In addition, the concentration for half-maximal inhibition (IC50) result in data set [5] is given as “Not Active”. In addition, the Ki entry (in data set [3]; on Cytochrome P450 2D6; in data set [4]; in data set [5]) was “Not Active” in each case.
`CCN1C[C@]2(COC)[C@H](O)C[C@H](OC)[C@@]34[C@@H]5C[C@@]6(O)[C@H](OC(=O)c7ccccc7)[C@@H]5[C@@](OC(C)=O)([C@@H]([C@H](OC)[C@H]23)[C@@H]14)[C@@H](O)[C@@H]6OC` [ACONITINE]: the IC50 entry (in data set [1] (platelet); in data set [2]; at D(4) dopamine receptor; in data set [3]; against Cytochrome P450 2D6; in data set [4]) was “Not Active” throughout. The half-maximal inhibitory concentration (IC50) entry in data set [5] was “Not Active”. In addition, the Ki result (in data set [3]; on Cytochrome P450 2D6; in data set [4]; in data set [5]) was “Not Active” each time.
Regarding `CCO` [ALCOHOL], the IC50 result (in data set [1] (platelet); in data set [2]; on D(4) dopamine receptor; in data set [3]; at Cytochrome P450 2D6; in data set [4]) was “Not Active” in each case. Further, the IC50 result in data set [5] was “Not Active”. The Ki result (in data set [3]; on Cytochrome P450 2D6; in data set [4]; in data set [5]) was “Not Active” throughout.
Regarding `OC[C@H]1O[C@@H]2O[C@H]3[C@H](O)[C@@H](O)[C@@H](O[C@H]4[C@H](O)[C@@H](O)[C@@H](O[C@H]5[C@H](O)[C@@H](O)[C@@H](O[C@H]6[C@H](O)[C@@H](O)[C@@H](O[C@H]7[C@H](O)[C@@H](O)[C@@H](O[C@H]1[C@H](O)[C@H]2O)O[C@@H]7CO)O[C@@H]6CO)O[C@@H]5CO)O[C@@H]4CO)O[C@@H]3CO` [ALFADEX], the IC50 entry (in data set [1] (platelet); in data set [2]; at D(4) dopamine receptor; in data set [3]; at Cytochrome P450 2D6; in data set [4]) was “Not Active” in each case. Moreover, the IC50 entry in data set [5] was “Not Active”. Further, the Ki entry (in data set [3]; at Cytochrome P450 2D6; in data set [4]; in data set [5]) was “Not Active” each time.
For the compound `Oc1ncnc2[nH]ncc12` [ALLOPURINOL], the IC50 result (in data set [1] (platelet); in data set [2]; at D(4) dopamine receptor; in data set [3]; on Cytochrome P450 2D6; in data set [4]) was “Not Active” in each case. Further, in data set [5], the IC50 entry is recorded as “Not Active”. The Ki result (in data set [3]; at Cytochrome P450 2D6; in data set [4]; in data set [5]) was “Not Active” each time.
For `C=CCO` [ALLYL ALCOHOL], the IC50 entry (in data set [1] (platelet); in data set [2]; at D(4) dopamine receptor; in data set [3]; at Cytochrome P450 2D6; in data set [4]) was “Not Active” throughout. For the same compound, the IC50 entry in data set [5] is recorded as “Not Active”. Further, the Ki entry (in data set [3]; at Cytochrome P450 2D6; in data set [4]; in data set [5]) was “Not Active” each time.
As for `Nc1nc(N)c2nc(CNc3ccc(C(=O)N[C@@H](CCC(=O)O)C(=O)O)cc3)cnc2n1` [AMINOPTERIN], the IC50 entry (in data set [1] (platelet); in data set [2]; at D(4) dopamine receptor; in data set [3]; against Cytochrome P450 2D6; in data set [4]) was “Not Active” each time. Moreover, in data set [5], the IC50 entry was “Not Active”. In addition, the Ki entry (in data set [3]; on Cytochrome P450 2D6; in data set [4]; in data set [5]) was “Not Active” each time.
For the compound `Nc1ccc(C(=O)O)c(O)c1` [AMINOSALICYLIC ACID], the 50% inhibitory concentration (IC50) entry (in data set [1] (platelet); in data set [2]; on D(4) dopamine receptor; in data set [3]; against Cytochrome P450 2D6; in data set [4]) was “Not Active” throughout. For the same compound, the IC50 result in data set [5] is given as “Not Active”. The Ki result (in data set [3]; on Cytochrome P450 2D6; in data set [4]; in data set [5]) was “Not Active” in each case.
As to `C[C@@H]1[C@H](O)[C@@H](C)/C=C/C=C/C=C/C=C/C=C/C=C/C=C/[C@H](O[C@@H]2O[C@H](C)[C@@H](O)[C@H](N)[C@@H]2O)C[C@@H]2O[C@](O)(C[C@@H](O)C[C@@H](O)[C@H](O)CC[C@@H](O)C[C@@H](O)CC(=O)O[C@H]1C)C[C@H](O)[C@H]2C(=O)O` [AMPHOTERICIN B], the IC50 entry (in data set [1] (platelet); in data set [2]; on D(4) dopamine receptor; in data set [3]; against Cytochrome P450 2D6; in data set [4]) was “Not Active” in each case. Further, the IC50 entry in data set [5] was “Not Active”. The Ki entry (in data set [3]; on Cytochrome P450 2D6; in data set [4]; in data set [5]) was “Not Active” each time.

As usually defined, the IC50 is the point on the concentration scale where inhibition reaches its midpoint.
